Laboratory results: patent US20240425500A1 (priority 2021, published 2024)

Columns and labels:
[1] = test system: Phytophthora infestans; assay: whole plant or invertebrate; format: in vivo; details: in Solanum lycopersicum, foliar, read-out: control of Phytophthora infestans compared to untreated control
[2] = test system: Pythium ultimum; assay: Pythium ultimum / liquid culture (seedling damping off); format: cell-based; details: Globisporangium ultimum, liquid culture in PDB, 24 °C, 2-3 days after application, read-out: control of Pythium ultimum (inhibition of growth, photometric) compared to untreated control
Method: Pythium ultimum/Liquid Culture (Seedling Damping Off):
Mycelia fragments and oospores of a newly grown liquid culture of the fungus are directly mixed into nutrient broth (PDB potato dextrose broth). After placing a (DMSO) solution of test compound into a microtiter plate (96-well format), the nutrient broth containing the fungal mycelia/spore mixture is added. The test plates are incubated at 24° C. and the inhibition of growth is determined photometrically 2-3 days after application.

Compound | pest or weed control at 200 ppm [1] | inhibition at 20 ppm [2]
CCc1cccc(N(C)C(=O)c2ccc3ncc(-c4ccc(NC(=O)OC)cc4)n3c2)c1 [Compound 10, methyl N-[4-[6-[(3-ethylphenyl)-methyl-carbamoyl]imidazo[1,2-a]pyridin-3-yl]phenyl]carbamate] | ≥ 80% | ≥ 80%
C#Cc1cccc(N(C)C(=O)c2ccc3ncc(-c4ccc(NC(=O)OC)nc4)n3c2)c1 [Compound 43, methyl N-[5-[6-[(3-ethynylphenyl)-methyl-carbamoyl]imidazo[1,2-a]pyridin-3-yl]-2-pyridyl]carbamate] | ≥ 80% | ≥ 80%
COC(=O)Nc1ccc(-c2cnc3ccc(C(=O)N(C)c4cccc(F)c4)cn23)cn1 [Compound 52, methyl N-[5-[6-[(3-fluorophenyl)-methyl-carbamoyl]imidazo[1,2-a]pyridin-3-yl]-2-pyridyl]carbamate] | ≥ 80% | ≥ 80%
COC(=O)Nc1ccc(-c2cnc3ccc(C(=O)N(C)c4cncc(OC)c4)cn23)cn1 [Compound 55, methyl N-[5-[6-[(5-methoxy-3-pyridyl)-methyl-carbamoyl]imidazo[1,2-a]pyridin-3-yl]-2-pyridyl]carbamate] | ≥ 80% | ≥ 80%
COC(=O)Nc1ccc(-c2cnc3ccc(C(=O)N(C)c4cccc(Cl)c4)cn23)cn1 [Compound 62, methyl N-[5-[6-[(3-chlorophenyl)-methyl-carbamoyl]imidazo[1,2-a]pyridin-3-yl]-2-pyridyl]carbamate] | ≥ 80% | ≥ 80%
COC(=O)Nc1ccc(-c2cnc3ccc(C(=O)N(C)c4ccnc(F)c4)cn23)cn1 [Compound 71, methyl N-[5-[6-[(2-fluoro-4-pyridyl)-methyl-carbamoyl]imidazo[1,2-a]pyridin-3-yl]-2-pyridyl]carbamate] | ≥ 80% | ≥ 80%
COCCOc1cc(N(C)C(=O)c2ccc3ncc(-c4ccc(NC(=O)OC)nc4)n3c2)ccc1F [Compound 77, methyl N-[5-[6-[[4-fluoro-3-(2-methoxyethoxy)phenyl]-methyl-carbamoyl]imidazo[1,2-a]pyridin-3-yl]-2-pyridyl]carbamate] | ≥ 80% | ≥ 80%
CNC(=O)Nc1ccc(-c2cnc3ccc(C(=O)N(C)c4ccc(F)c(OC)c4)cn23)cc1 [Compound 80, N-(4-fluoro-3-methoxy-phenyl)-N-methyl-3-[4-(methylcarbamoyl-amino)phenyl]imidazo[1,2-a]pyridine-6-carboxamide] | ≥ 80% | ≥ 80%
CNC(=O)Nc1ccc(-c2cnc3ccc(C(=O)N(C)c4ccc(F)c(OC)c4)cn23)cn1 [Compound 81, N-(4-fluoro-3-methoxy-phenyl)-N-methyl-3-[6-(methylcarbamoyl-amino)-3-pyridyl]imidazo[1,2-a]pyridine-6-carboxamide] | ≥ 80% | ≥ 80%
COC(=O)Nc1ccc(-c2cnc3c(C4CC4)cc(C(=O)N(C)c4ccc(F)cc4)cn23)cn1 [Compound 83, methyl N-[5-[8-cyclopropyl-6-[(4-fluorophenyl)-methyl-carbamoyl]imidazo[1,2-a]pyridin-3-yl]-2-pyridyl]carbamate] | ≥ 80% | ≥ 80%
COC(=O)Nc1ccc(-c2cnc3ccc(C(=O)N(CS(C)(=O)=O)c4ccc(F)c(OC)c4)cn23)cn1 [Compound 92, methyl N-[5-[6-[(4-fluoro-3-methoxy-phenyl)-(methylsulfonylmethyl)carbamoyl]imidazo[1,2-a]pyridin-3-yl]-2-pyridyl] carbamate] | ≥ 80% | ≥ 80%
CNC(=O)CN(C(=O)c1ccc2ncc(-c3ccc(NC(=O)OC)nc3)n2c1)c1ccc(F)c(OC)c1 [Compound 97, methyl N-[5-[6-[(4-fluoro-3-methoxy-phenyl)-[2-(methylamino)-2-oxo-ethyl]carbamoyl]imidazo[1,2-a]pyridin-3-yl]-2-pyridyl]carbamate] | ≥ 80% | ≥ 80%
CONC(=O)Nc1ccc(-c2cnc3ccc(C(=O)N(C)c4ccc(F)c(OC)c4)cn23)cn1 [Compound 99] | ≥ 80% | ≥ 80%
COC(=O)Nc1ccc(-c2cnc3ccc(C(=O)N(c4ccc(F)cc4)C4CCC4)cn23)cn1 [Compound 109, methyl N-[5-[6-[cyclobutyl-(4-fluorophenyl)carbamoyl]imidazo [1,2-a]pyridin-3-yl]-2-pyridyl]carbamate] | ≥ 80% | ≥ 80%
CNC(=O)c1cccc(N(C)C(=O)c2ccc3ncc(-c4ccc(NC(=O)OC)nc4)n3c2)c1 [Compound 115, methyl N-[5-[6-[methyl-[3-(methylcarbamoyl)phenyl]carbamoyl]imidazo[1,2-a]pyridin-3-yl]-2-pyridyl]carbamate] | ≥ 80% | ≥ 80%
CCN(C(=O)c1ccc2ncc(-c3ccc(NC(=O)OC)nc3)n2c1)c1ccc(OC)c(OC)c1 [Compound 119, methyl N-[5-[6-[(3,4-dimethoxyphenyl)-ethyl-carbamoyl]imidazo[1,2-a]pyridin-3-yl]-2-pyridyl]carbamate] | ≥ 80% | 
CCOCCN(C(=O)c1ccc2ncc(-c3ccc(NC(=O)OC)nc3)n2c1)c1ccc(Cl)cc1 [Compound 123, methyl N-[5-[6-[(4-chlorophenyl)-(2-ethoxyethyl)carbamoyl]imidazo[1,2-a]pyridin-3-yl]-2-pyridyl]carbamate] | ≥ 80% | ≥ 80%
COC(=O)Nc1ccc(-c2cnc3ccc(C(=O)N(CCC#N)c4ccc(Cl)cc4)cn23)cn1 [Compound 128, methyl N-[5-[6-[(4-chlorophenyl)-(2-cyanoethyl)carbamoyl]imidazo[1,2-a]pyridin-3-yl]-2-pyridyl]carbamate] | ≥ 80% | ≥ 80%
COC(=O)Nc1ccc(-c2cnc3ccc(C(=O)N(CC(C)C)c4ccccc4)cn23)cn1 [Compound 134, methyl N-[5-[6-[isobutyl(phenyl)carbamoyl]imidazo[1,2-a]pyridin-3-yl]-2-pyridyl]carbamate] | ≥ 80% | 
CCOC(=O)CN(C(=O)c1ccc2ncc(-c3ccc(NC(=O)OC)nc3)n2c1)c1ccc(F)cc1 [Compound 150, ethyl 2-(4-fluoro-N-[3-[6-(methoxy-carbonylamino)-3-pyridyl]imidazo[1,2-a]pyridine-6-carbonyl]anilino)acetate] |  | ≥ 80%
CN(C(=O)c1ccc2ncc(-c3ccc(NC(=O)C4CC4)nc3)n2c1)c1ccc(F)cc1 [Compound 165, 3-[6-(cyclo-propanecarbonylamino)-3-pyridyl]-N-(4-fluorophenyl)-N-methyl-imidazo[1,2-a]pyridine-6-carboxamide] |  | ≥ 80%
CCC(=O)Nc1ccc(-c2cnc3ccc(C(=O)N(C)c4ccc(F)cc4)cn23)cn1 [Compound 166, N-(4-fluorophenyl)-N-methyl-3-[6-(propanoylamino)-3-pyridyl]imidazo[1,2-a]pyridine-6-carboxamide] |  | ≥ 80%
CCOC(=O)c1cc(N(C)C(=O)c2ccc3ncc(-c4ccc(NC(=O)OC)nc4)n3c2)ccc1F [Compound 176, ethyl 2-fluoro-5-[[3-[6-(methoxy-carbonylamino)-3-pyridyl]imidazo[1,2-a]pyridine-6-carbonyl]-methyl-amino]benzoate] |  | ≥ 80%
